Here are results for 27 compounds from patent US20090311217A1, “3-SUBSTITUTED-1H-INDOLE COMPOUNDS, THEIR USE AS MTOR KINASE AND PI3 KINASE INHIBITORS, AND THEIR SYNTHESES” (priority 2008, published 2009).

In one test the target is PI3K-alpha (Homo sapiens, UniProt P42336). Nature of the test: PI3K-alpha fluorescence polarization assay. Format: biochemical.
In a further test the target is PI3K-gamma (Homo sapiens, UniProt P48736). Nature of the test: PI3K-gamma fluorescence polarization assay. The format is biochemical. Put shortly:
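Reactions in 5 mM HEPES pH 7, 2.5 mM MgCl2, 25 μM ATP with 2.5 μM diC8-PI(4,5)P2 and 5 ng enzyme, 1 h at 25° C, then EDTA quench. Product detected by FP using GST-GRP1 PH domain (100 nM) and BODIPY-TMR-IP4 tracer (5 nM); final DMSO 0.8%.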
(Fluorescence polarisation rises when a labelled molecule tumbles more slowly, as on binding a larger partner.)

Read-outs that look alike come from different tables or passages of the source. A value given as a limit tells only on which side of the number the result lay.

Chain of PI3K-gamma (P48736 whole entry, species assumed, the tested form may be a part): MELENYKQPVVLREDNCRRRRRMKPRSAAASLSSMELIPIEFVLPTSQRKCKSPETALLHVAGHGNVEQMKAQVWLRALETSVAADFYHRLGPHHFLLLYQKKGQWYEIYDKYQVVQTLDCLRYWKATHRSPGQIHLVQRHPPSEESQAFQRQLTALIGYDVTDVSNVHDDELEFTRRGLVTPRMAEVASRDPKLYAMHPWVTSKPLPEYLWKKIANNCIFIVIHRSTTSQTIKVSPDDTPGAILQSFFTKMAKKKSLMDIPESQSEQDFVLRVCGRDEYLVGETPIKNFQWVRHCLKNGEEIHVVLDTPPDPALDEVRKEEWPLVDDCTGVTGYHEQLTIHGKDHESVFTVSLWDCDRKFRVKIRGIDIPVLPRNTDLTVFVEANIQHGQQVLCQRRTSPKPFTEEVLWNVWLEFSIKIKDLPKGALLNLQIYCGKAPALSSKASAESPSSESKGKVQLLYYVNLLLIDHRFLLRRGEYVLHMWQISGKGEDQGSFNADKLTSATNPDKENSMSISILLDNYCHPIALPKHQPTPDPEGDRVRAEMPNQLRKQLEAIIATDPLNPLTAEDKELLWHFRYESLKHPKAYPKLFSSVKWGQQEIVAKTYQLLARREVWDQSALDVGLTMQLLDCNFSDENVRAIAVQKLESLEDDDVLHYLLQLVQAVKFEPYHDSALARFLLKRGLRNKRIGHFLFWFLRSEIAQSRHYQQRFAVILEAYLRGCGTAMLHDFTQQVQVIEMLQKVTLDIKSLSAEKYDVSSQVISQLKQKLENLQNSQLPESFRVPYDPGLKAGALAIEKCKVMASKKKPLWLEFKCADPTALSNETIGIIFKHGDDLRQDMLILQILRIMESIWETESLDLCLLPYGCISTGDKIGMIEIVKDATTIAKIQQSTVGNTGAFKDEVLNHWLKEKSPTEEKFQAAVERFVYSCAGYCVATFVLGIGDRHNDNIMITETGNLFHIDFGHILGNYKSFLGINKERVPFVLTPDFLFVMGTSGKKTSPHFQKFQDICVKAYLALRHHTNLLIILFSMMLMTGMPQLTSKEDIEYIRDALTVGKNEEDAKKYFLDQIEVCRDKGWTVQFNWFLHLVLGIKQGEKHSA
Chain of PI3K-alpha (P42336 whole entry, species assumed): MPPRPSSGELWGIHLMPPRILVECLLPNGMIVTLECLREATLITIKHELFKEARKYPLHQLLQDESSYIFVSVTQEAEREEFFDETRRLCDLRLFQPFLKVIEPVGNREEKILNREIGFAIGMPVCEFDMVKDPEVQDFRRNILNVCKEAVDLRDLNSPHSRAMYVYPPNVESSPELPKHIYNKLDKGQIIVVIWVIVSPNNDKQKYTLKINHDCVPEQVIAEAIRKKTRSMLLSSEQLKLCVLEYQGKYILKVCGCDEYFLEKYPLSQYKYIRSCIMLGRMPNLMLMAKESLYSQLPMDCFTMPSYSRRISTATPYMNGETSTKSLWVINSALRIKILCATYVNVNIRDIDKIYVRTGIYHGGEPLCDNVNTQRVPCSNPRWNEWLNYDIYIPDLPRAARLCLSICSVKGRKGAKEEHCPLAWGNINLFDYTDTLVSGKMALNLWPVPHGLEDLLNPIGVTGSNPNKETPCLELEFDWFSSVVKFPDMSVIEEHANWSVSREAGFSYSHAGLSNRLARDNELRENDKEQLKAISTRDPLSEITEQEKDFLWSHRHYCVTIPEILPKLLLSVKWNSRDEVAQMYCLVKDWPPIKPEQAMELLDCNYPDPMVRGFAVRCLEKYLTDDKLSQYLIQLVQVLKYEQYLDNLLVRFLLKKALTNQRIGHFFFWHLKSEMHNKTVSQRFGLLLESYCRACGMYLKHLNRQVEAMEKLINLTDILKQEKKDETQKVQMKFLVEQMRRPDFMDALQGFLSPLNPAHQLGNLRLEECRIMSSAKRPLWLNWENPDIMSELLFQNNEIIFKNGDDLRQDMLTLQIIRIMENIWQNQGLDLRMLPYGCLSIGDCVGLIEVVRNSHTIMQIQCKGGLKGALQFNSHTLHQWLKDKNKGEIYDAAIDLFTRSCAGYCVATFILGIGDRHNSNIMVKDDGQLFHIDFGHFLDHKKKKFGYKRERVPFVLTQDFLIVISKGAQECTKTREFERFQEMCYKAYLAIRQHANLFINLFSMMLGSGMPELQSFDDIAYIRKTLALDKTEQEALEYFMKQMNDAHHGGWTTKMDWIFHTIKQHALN
Chain of PI3K-alpha (P27986 whole entry partner, species assumed): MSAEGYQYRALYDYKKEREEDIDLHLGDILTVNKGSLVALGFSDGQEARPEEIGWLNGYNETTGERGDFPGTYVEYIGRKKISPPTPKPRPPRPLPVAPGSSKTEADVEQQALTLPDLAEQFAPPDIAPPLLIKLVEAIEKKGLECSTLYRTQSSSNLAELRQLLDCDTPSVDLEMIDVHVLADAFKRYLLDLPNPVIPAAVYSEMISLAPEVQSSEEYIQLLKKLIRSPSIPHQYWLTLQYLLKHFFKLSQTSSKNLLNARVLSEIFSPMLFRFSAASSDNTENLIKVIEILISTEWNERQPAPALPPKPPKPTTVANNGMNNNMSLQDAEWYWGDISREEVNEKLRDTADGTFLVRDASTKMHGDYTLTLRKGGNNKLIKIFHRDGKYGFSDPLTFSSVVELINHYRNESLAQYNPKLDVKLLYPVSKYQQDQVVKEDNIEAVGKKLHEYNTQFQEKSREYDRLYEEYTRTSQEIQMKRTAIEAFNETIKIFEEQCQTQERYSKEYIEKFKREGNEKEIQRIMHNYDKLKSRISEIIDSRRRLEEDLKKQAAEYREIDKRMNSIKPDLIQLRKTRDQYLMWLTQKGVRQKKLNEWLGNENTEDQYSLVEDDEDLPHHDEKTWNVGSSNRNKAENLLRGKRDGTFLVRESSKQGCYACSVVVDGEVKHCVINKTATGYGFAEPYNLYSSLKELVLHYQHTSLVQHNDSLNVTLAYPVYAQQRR

As usually defined, the IC50 is the concentration that inhibits the measured activity by half. As to `COc1ccc2c(c1)c(/C=C1\Oc3ccc(NC(=O)NCCN)cc3C1=O)cn2CCN1CCN(C)CC1` [Compound 549, 1-(2-aminoethyl)-3-[(2Z)-2-({5-methoxy-1-[2-(4-methylpiperazin-1-yl)ethyl]-1Hindol-3-yl}methylene)-3-oxo-2,3-dihydro-1-benzofuran-5-yl]urea], the figures for the concentration for half-maximal inhibition (IC50) on PI3K-alpha (read-out: PI3Kα Avg. IC50) and at PI3K-gamma (PI3Kγ Avg. IC50) were 0.0135 µM and 2.98 µM, respectively.
Taken in the same sequence, the figures for `CNC(=O)Nc1ccc2c(c1)C(=O)/C(=C/c1c(-c3ccncc3)n(CCN3CCN(C)CC3)c3ccc(OC)cc13)O2` [Compound 590, 1-[(2Z)-2-({5-methoxy-1-[2-(4-methylpiperazin-1-yl)ethyl]-2-pyridin-4-yl-1Hindol-3-yl}methylene)-3-oxo-2,3-dihydro-1-benzofuran-5-yl]-3-methylurea] were 0.00367 µM and 1.02 µM.
In the case of `COc1ccc2c(c1)c(/C=C1\Oc3ccc(NC(=O)NCCCN(C)C)cc3C1=O)cn2CCN1CCN(C)CC1` [Compound 569, 1-[3-(dimethylamino)propyl]-3-[(2Z)-2-({5-methoxy-1-[2-(4-methylpiperazin-1-yl)ethyl]-1H-indol-3-yl}methylene)-3-oxo-2,3-dihydro-1-benzofuran-5-yl]urea], the values for the IC50 on PI3K-alpha (read-out: PI3Kα Avg. IC50) and against PI3K-gamma (PI3Kγ Avg. IC50) were 0.242 µM and 6.5 µM, respectively.
`CNC(=O)Nc1ccc2c(c1)C(=O)/C(=C/c1c(C(=O)N3CCN(C)CC3)[nH]c3ccc(OC)cc13)O2` [Compound 601, 1-[(2Z)-2-({5-methoxy-2-[(4-methylpiperazin-1-yl)carbonyl]-1H-indol-3-yl}methylidene)-3-oxo-2,3-dihydro-1-benzofuran-5-yl]-3-methylurea]: the values for the IC50 at PI3K-alpha (read-out: PI3Kα Avg. IC50) and at PI3K-gamma (PI3Kγ Avg. IC50) were 0.008 µM and 0.077 µM, respectively.
As for `COc1ccc2[nH]c(-c3ccccc3)c(C=C3Oc4c(ccc(O)c4O)C3=O)c2c1` [Example 71, 6,7-dihydroxy-2-[(5-methoxy-2-phenyl-1H-indol-3-yl)methylene]-1-benzofuran-3(2H)-one], the values for the IC50 at PI3K-alpha (read-out: PI3Kα Avg. IC50) and against PI3K-gamma (PI3Kγ Avg. IC50) were 0.0742 µM and 0.439 µM, respectively.
The corresponding values for `CNC(=O)Nc1ccc2c(c1)C(=O)/C(=C/c1c(C)n(CCN3CCOCC3)c3ccc(OC)cc13)O2` [Compound 608, 1-[(2Z)-2-{[5-methoxy-2-methyl-1-(2-morpholin-4-ylethyl)-1H-indol-3-yl]methylidene}-3-oxo-2,3-dihydro-1-benzofuran-5-yl]-3-methylurea] are 0.0155 µM and 0.136 µM.
With `CNC(=O)Nc1ccc2c(c1)C(=O)/C(=C/c1c(C3CCCC3)n(CCN3CCN(C)CC3)c3ccc(OC)cc13)O2` [Compound 561, 1-[(2Z)-2-({2-cyclopentyl-5-methoxy-1-[2-(4-methylpiperazin-1-yl)ethyl]-1Hindol-3-yl}methylene)-3-oxo-2,3-dihydro-1-benzofuran-5-yl]-3-methylurea], the 50% inhibitory concentration (IC50) at PI3K-alpha (read-out: PI3Kα Avg. IC50) worked out at 0.00315 µM; on PI3K-gamma (PI3Kγ Avg. IC50) it was 0.378 µM.
Taken in the same sequence, the figures for `CNC(=O)Nc1ccc2c(c1)C(=O)/C(=C/c1c(C)n(CCCN3CCN(CCO)CC3)c3ccc(OC)cc13)O2` [Compound 599, 1-{(2Z)-2-[(1-{3-[4-(2-hydroxyethyl)piperazin-1-yl]propyl}-5-methoxy-2-methyl-1H-indol-3-yl)methylidene]-3-oxo-2,3-dihydro-1-benzofuran-5-yl}-3-methylurea] were 0.01 µM and 0.95 µM.
For the compound `COc1ccc2c(c1)c(/C=C1\Oc3ccc(NC(=O)NCCN)cc3C1=O)c(-c1ccccc1)n2CCN1CCN(C)CC1` [Compound 576, 1-(2-aminoethyl)-3-[(2Z)-2-({5-methoxy-1-[2-(4-methylpiperazin-1-yl)ethyl]-2-phenyl-1H-indol-3-yl}methylene)-3-oxo-2,3-dihydro-1-benzofuran-5-yl]urea], the IC50 on PI3K-alpha (read-out: PI3Kα Avg. IC50) amounted to 0.0006 µM; on PI3K-gamma (PI3Kγ Avg. IC50), 0.0275 µM.
As to `Cc1[nH]c2ccc(Br)cc2c1/C=C1\Oc2c(ccc(O)c2O)C1=O` [Example 66, (2Z)-2-[(5-bromo-2-methyl-1H-indol-3-yl)methylene]-6,7-dihydroxy-1-benzofuran-3(2H)-one], the half-inhibitory concentration (IC50) turned out to be 0.232 µM at PI3K-alpha (read-out: PI3Kα Avg. IC50) and 2.91 µM at PI3K-gamma (PI3Kγ Avg. IC50).
Regarding `COc1ccc2[nH]cc(/C=C3\Oc4cc(O)cc(C(N)=O)c4C3=O)c2c1` [Compound 518, (2Z)-6-hydroxy-2-[(5-methoxy-1H-indol-3-yl)methylene]-3-oxo-2,3-dihydro-1-benzofuran-4-carboxamide], the IC50 is 0.451 µM at PI3K-alpha (read-out: PI3Kα Avg. IC50) and 1.15 µM at PI3K-gamma (PI3Kγ Avg. IC50).
The corresponding values for `COc1cc2[nH]cc(C=C3Oc4cc(O)cc(O)c4C3=O)c2cc1OC` [Example 181, 2-[(5,6-dimethoxy-1H-indol-3-yl)methylene]-4,6-dihydroxy-1-benzofuran-3(2H)-one] are 0.502 µM and 1.75 µM.
Taken in the same sequence, the figures for `COc1cc(-c2cncnc2)c2[nH]cc(/C=C3\Oc4cc(O)ccc4C3=O)c2c1` [Compound 498, (2Z)-6-hydroxy-2-[(5-methoxy-7-pyrimidin-5-yl-1H-indol-3-yl)methylene]-1-benzofuran-3(2H)-one] were 0.0635 µM and 0.392 µM.
For `CNC(=O)Nc1ccc2c(c1)C(=O)/C(=C/c1c(C)n(CCCN3CCCCC3)c3ccc(OC)cc13)O2` [Compound 588, 1-[(2Z)-2-{[5-methoxy-2-methyl-1-(3-piperidin-1-ylpropyl)-1H-indol-3-yl]methylene}-3-oxo-2,3-dihydro-1-benzofuran-5-yl]-3-methylurea], the IC50 turned out to be 0.0035 µM at PI3K-alpha (read-out: PI3Kα Avg. IC50) and 0.83 µM on PI3K-gamma (PI3Kγ Avg. IC50).
Taken in the same sequence, the figures for `COc1ccc2[nH]cc(/C=C3\Oc4ccc(NC(=O)NC(C)C)cc4C3=O)c2c1` [Compound 486, 1-isopropyl-3-{(2Z)-2-[(5-methoxy-1H-indol-3-yl)methylene]-3-oxo-2,3-dihydro-1-benzofuran-5-yl}urea] were 1.46 µM and 1.61 µM.
As for `COc1ccc2[nH]cc(/C=C3\Oc4ccc(NC(=O)Nc5cccnc5)cc4C3=O)c2c1` [Compound 484, 1-{(2Z)-2-[(5-methoxy-1H-indol-3-yl)methylene]-3-oxo-2,3-dihydro-1-benzofuran-5-yl}-3-pyridin-3-ylurea], the IC50 was 1.66 µM on PI3K-alpha (read-out: PI3Kα Avg. IC50) and over 10 µM at PI3K-gamma (PI3Kγ Avg. IC50).
Take “4-hydroxy-2-[(1-{2-[4-(2-hydroxyethyl)piperazin-1-yl]ethyl}-5-methoxy-2-methyl-1H-indol-3-yl)methylene]-1-benzofuran-3(2H)-one [Example 131]”: the half-maximal inhibitory concentration (IC50) at PI3K-alpha (read-out: PI3Kα Avg. IC50) was determined as 0.478 µM; at PI3K-gamma (read-out: PI3Kγ Avg. IC50), 3.97 µM.
On to `COc1ccc2[nH]cc(/C=C3\Oc4cc(O)cc(CO)c4C3=O)c2c1` [Compound 517, (2Z)-6-hydroxy-4-(hydroxymethyl)-2-[(5-methoxy-1H-indol-3-yl)methylene]-1-benzofuran-3(2H)-one], for which the values for the half-inhibitory concentration (IC50) at PI3K-alpha (read-out: PI3Kα Avg. IC50) and against PI3K-gamma (PI3Kγ Avg. IC50) were 0.0825 µM and 0.714 µM, respectively.
Take `CNC(=O)Nc1ccc2c(c1)C(=O)/C(=C/c1cn(CCCC#N)c3ccc(OC)cc13)O2` [Compound 579, 1-[(2Z)-2-{[1-(3-cyanopropyl)-5-methoxy-1H-indol-3-yl]methylene}-3-oxo-2,3-dihydro-1-benzofuran-5-yl]-3-methylurea]: the IC50 stood at 0.03 µM at PI3K-alpha (read-out: PI3Kα Avg. IC50) and 0.129 µM on PI3K-gamma (PI3Kγ Avg. IC50).
As for `O=C1/C(=C/c2c(-c3ccc(F)cc3)[nH]c3ccccc23)Oc2c(O)cccc21` [Example 68, (2Z)-2-{[2-(4-fluorophenyl)-1H-indol-3-yl]methylene}-7-hydroxy-1-benzofuran-3(2H)-one], the IC50 came out at 0.481 µM at PI3K-alpha (PI3Kα Avg. IC50) and 0.486 µM against PI3K-gamma (PI3Kγ Avg. IC50).
Consider `COc1cccc2c1c(/C=C1\Oc3cc(O)cc(O)c3C1=O)c(-c1ccccc1)n2C` [Compound 497, (2Z)-4,6-dihydroxy-2-[(4-methoxy-1-methyl-2-phenyl-1H-indol-3-yl)methylene]-1-benzofuran-3(2H)-one], for which the IC50 at PI3K-alpha (read-out: PI3Kα Avg. IC50) turned out to be 0.963 µM; at PI3K-gamma (PI3Kγ Avg. IC50) it was 1.21 µM.
The corresponding values for `Cn1cc(/C=C2\Oc3ccc(Br)cc3C2=O)c2c(-c3ccccc3)cccc21` [Compound 527, (2Z)-5-bromo-2-[(1-methyl-4-phenyl-1H-indol-3-yl)methylene]-1-benzofuran-3(2H)-one] are 2.99 µM and 3.81 µM.
Consider `COc1cc(/C=C/CN2CCN(C)CC2)c2c(c1)c(/C=C1\Oc3cc(O)ccc3C1=O)cn2C` [Compound 582, (2Z)-6-hydroxy-2-({5-methoxy-1-methyl-7-[(1E)-3-(4-methylpiperazin-1-yl)prop-1-en-1-yl]-1H-indol-3-yl}methylene)-1-benzofuran-3(2H)-one], for which the 50% inhibitory concentration (IC50) at PI3K-alpha (read-out: PI3Kα Avg. IC50) is 0.183 µM; against PI3K-gamma (PI3Kγ Avg. IC50), 3.57 µM.
For `CNC(=O)Nc1ccc2c(c1)C(=O)/C(=C/c1c(CN(C)C)[nH]c3ccc(OC)cc13)O2` [Compound 612, 1-[(2Z)-2-({2-[(dimethylamino)methyl]-5-methoxy-1H-indol-3-yl}methylidene)-3-oxo-2,3-dihydro-1-benzofuran-5-yl]-3-methylurea], the concentration for half-maximal inhibition (IC50) at PI3K-alpha (read-out: PI3Kα Avg. IC50) came out at 0.0155 µM; at PI3K-gamma (PI3Kγ Avg. IC50) it was 0.121 µM.
On to `CNC(=O)Nc1ccc2c(c1)C(=O)/C(=C/c1c[nH]c3c(/C=C/CN4CCN(C)CC4)cc(OC)cc13)O2` [Compound 594, 1-[(2Z)-2-({5-methoxy-7-[(1E)-3-(4-methylpiperazin-1-yl)prop-1-en-1-yl]-1Hindol-3-yl}methylene)-3-oxo-2,3-dihydro-1-benzofuran-5-yl]-3-methylurea], for which the values for the half-inhibitory concentration (IC50) on PI3K-alpha (read-out: PI3Kα Avg. IC50) and at PI3K-gamma (PI3Kγ Avg. IC50) were 0.0735 µM and 2.2 µM, respectively.
The corresponding values for `Cn1cc(/C=C2\Oc3ccc(NC(=O)Nc4cccnc4)cc3C2=O)c2c(-c3ccccc3)cccc21` [Compound 535, 1-{(2Z)-2-[(1-methyl-4-phenyl-1H-indol-3-yl)methylene]-3-oxo-2,3-dihydro-1-benzofuran-5-yl}-3-pyridin-3-ylurea] are over 10 µM and over 10 µM.
On to “4-hydroxy-2-({5-methoxy-2-methyl-1-[2-(4-methylpiperazin-1-yl)ethyl]-1H-indol-3-yl}methylene)-1-benzofuran-3(2H)-one [Example 129]”, for which the half-inhibitory concentration (IC50) was found to be 0.488 µM on PI3K-alpha (read-out: PI3Kα Avg. IC50) and 4.5 µM at PI3K-gamma (read-out: PI3Kγ Avg. IC50).
